Legend:
Sir2 = Sir2 (Saccharomyces cerevisiae, UniProt P53686); assay type: biochemical
Experimental: In parallel to the in silico screen, a solution screen for Sir2 effectors was carried out. A library containing about 10,000 Diversity Oriented Synthesis (DOS) compounds and natural product sub-libraries of compounds was screened using both yHst2 and hSIRT1 proteins.

Hst2 (residues 1-294) = Hst2 (residues 1-294) (Saccharomyces cerevisiae, UniProt P53686); assay: biased in vitro screening assay for relief of nicotinamide inhibition (Fluor de Lys); assay type: biochemical; conditions: […] μM nicotinamide present
Sequence of Hst2 (residues 1-294) (P53686 1-294): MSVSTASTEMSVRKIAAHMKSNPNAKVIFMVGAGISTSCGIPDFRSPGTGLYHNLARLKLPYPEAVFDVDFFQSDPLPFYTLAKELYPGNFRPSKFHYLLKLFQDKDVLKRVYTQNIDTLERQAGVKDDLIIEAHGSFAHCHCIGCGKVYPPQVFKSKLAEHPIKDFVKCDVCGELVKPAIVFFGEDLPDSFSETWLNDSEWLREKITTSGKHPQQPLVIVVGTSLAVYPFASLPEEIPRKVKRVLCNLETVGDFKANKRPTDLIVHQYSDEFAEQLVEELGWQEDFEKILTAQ
Experimental: This in vitro screen was carried out as follows.

Sequence of Sir2 (P53686 1-294): as above

Compound	IC50 (Sir2) [µM]	Fold Activation (Hst2 (residues 1-294))
O=C(O)CCN1Cc2ccccc2C1=O	19.8 ± 1.1	
6-(4-Fluoro- phenyl)-2,3- diphenyl-1,5- dihydro- imidazo[1,2- α]imidazole		2.9
CC1(C)CC(=O)C2=C(C1)NC1=C(C(=O)CC(C)(C)C1)C2c1cccc(F)c1 [9-(3-Fluoro-phenyl)-3,3,6,6-tetramethyl-2,4,6,7,9,10-hexahydro-2H,5H-acridine-1,8-dione]		2.2
Zinc pyrithione [reference compound]	1.8 ± 1.3	

Reference: patent publication US8180580B2, “Method for identifying a compound that modulates SIR2 protein activity” (The Wistar Institute, priority 2007, dated 2012)
